Test results taken from US20240156790A1, “COMPOUNDS, COMPOSITIONS, AND METHODS FOR MODULATING FERROPTOSIS AND TREATING EXCITOTOXIC DISORDERS” (THE TRUSTEES OF COLUMBIA UNIVERSITY IN THE CITY OF NEW YORK, priority 2018, published 2024).

Tests used:
[1] = In vivo pharmacokinetic study of TH-4-55-2 in drinking water (four days); parameters: species or system R6/2 mice; conditions: both sexes, R6/2, mouse, brain, oral, 20-30 mg/kg/day, 4-day treatment, read-out: concentration in brain samples
Method: TH-4-55-2 and 42 uM Citric acid were dissolved in 5% DMSO, 5% ethanol, and 90% PBS rendering a final concentration of 0.29 mg/mL Th-4-55-2 in drinking water. The mice drink ˜2 mL water per day, and the resulting dosage was around 20-30 mg/kg/day. C57BL/6 mice at ˜8 weeks of age were treated using drinking water daily for four days. 6 mice were randomly picked, weighed daily, the weight recorded, and the change in body weight compared to the baseline, pre-injection weight was calculated. Any mouse that lost more than 20% of its baseline body weight for three consecutive days was euthanized prior to the completion of the study. Mice were euthanized by CO2 asphyxiation for 3 min after administration. Approximately 0.5 mL of blood was collected via cardiac puncture and immediately put in K3 EDTA microtubes and kept on ice. Brains were harvested, placed in Eppendorf tubes, and frozen on dry ice. […]
Prior to LC-MS analysis, the samples were resuspended in 100 μL methanol and centrifuged for 5 minutes at 14,000×g at 4° C. The supernatant was analyzed via SYNAPT High Resolution Mass Spectrometer.
Samples from animal studies were analyzed via UPLC-MS using a Waters SYNAPT XS Mass spectrometer equipped with an Acquity UPLC. […] All samples were injected twice and the base peak chromatogram was integrated and quantified by a standard curve concurrently ran using MassLynx software and exported. […]

[2] = PHB4082 IP PK Study (plasma, brain, liver, kidney); assay type: in vivo, C57BL/6 mice
Method: C57BL/6 mice (8-weeks of age and ˜25 g weight) were weighed before injection and divided into groups of two male and female mice per cage. PHB4082 was dissolved in 5% DMSO/95% of 65% v/v of 25% w/v 2-hydroxypropyl-3-cyclodextrin (Cayman Chemical) dissolved in 20% EtOH, 30% v/v Poly(ethylene glycol)-400 (Sigma Aldrich 202398), 5% v/v Tween 80 (Fluka 59924) to create a 2 mg/mL Solution. The same formulation without PHB4082 was used as a vehicle control. The solution was sterilized using a […] Steriflip filter unit (Thomas Scientific 1189Q46) and stored at 4° C. Mice were dosed IP and euthanized by CO2 asphyxiation for 3 min at 0, 1, 2, 4, and 8 h after administration. To ensure that the vehicle was well-tolerated, four mice were treated with vehicle and euthanized 4 h after administration. ˜0.5 mL of blood was collected via cardiac puncture and immediately put in K3 EDTA microtubes ([…] 41.1504.105) and kept on ice. Organs were harvested, placed in Eppendorf tubes, and frozen on dry ice. Blood samples were centrifuged for 10 min at 2,100×g at 4° C., then plasma was transferred to a clean tube and frozen on dry ice. Organ samples were weighed and placed in hard tissue homogenizing tubes (Omni International 19-628) and a volume of DEPC-treated nuclease-free water (IBI Scientific IB42200) was added to make a 500 mg/mL solution and homogenized using the Omni Bead Ruptor 4 at speed 5 for 30 seconds. PHB4082 was extracted from plasma or organ homogenate by adding 900 μL acetonitrile to 100 μL plasma or organ homogenate. Samples were mixed by vortexing and allowed to extract overnight at 4° C. prior to mixing for at least 5 min by rotating at room temperature, vortexing, and sonicating for at least 30 second prior to centrifugation for 10 min at 4,000×g and 4° C. The supernatant was then transferred to a glass vial and dried under nitrogen. After drying, the samples were resuspended in 100 μL of methanol and analyzed by UPLC-MS described below. The concentration of PHB4082 was determined against a standard curve with a linear fit and the data plot in GraphPad Prism 9 and fit with a one phase decay.
To evaluate whether PHB4082 was a suitable candidate for in vivo studies, we performed a pharmacokinetic study of PHB4082 in C57BL/6 mice at ˜8 weeks of age. To evaluate sex-specific effects on compound metabolism, two male and two female mice were used for each condition. Mice were dosed at 20 mg/kg via intraperitoneal (IP) injection and the injection volume ranged from 180 uL to 300 uL based on different body weights. […] Extracts were analyzed via UPLC-MS and the concentration of compound determined against a standard curve ran concurrently with samples.

CCC(CC)Nc1cc(-c2nc(C)no2)cnc1NC1CCCCC1 [TH-4-55-2, N^2-cyclohexyl-5-(3-methyl-1,2,4-oxadiazol-5-yl)-N^3-(pentan-3-yl)pyridine-2,3-diamine] gave a concentration at 4 days [1] of 1500 to 33000 nM.
In the case of Cc1noc(-c2ccc(NC3CCCCC3)c(NC3CCCCC3)c2)n1 [PHB4082, N1,N2-dicyclohexyl-4-(3-methyl-1,2,4-oxadiazol-5-yl)benzene-1,2-diamine], the “accumulation in plasma and brain” value ([2]; 20 mg/kg IP) is reported as ~100 nM, the “tissue accumulation, in words” value ([2]; IP) is reported as “stably accumulates in mouse kidney with minimal accumulation observed in brain” and the concentration in brain ([2]; PK study of PHB4082) is reported as “around 200 nM”. For the same compound, the concentration at 8 h ([2]; both sexes, C57BL/6, mouse, kidney, intraperitoneal, 20 mg/kg IP, at eight hours) was 1800 nM.
